Patent US10927106B2, “Benzothiazole derivatives as DYRK1 inhibitors” (PHARMASUM THERAPEUTICS AS, priority 2017, dated 2021)
Where two headings read alike, the source gives them in different places.

Legend:
Experiment in all cases: Kinase profiling, 33P ATP filter binding assay
Assay type in all cases: biochemical
MNK2 = MNK2 (Homo sapiens (Human), UniProt Q9HBH9); conditions: 1 micromolar inhibitor concentration, read-out: percentage inhibition
PKCa = PKCa (Homo sapiens (Human), UniProt P17252); conditions: 1 micromolar inhibitor concentration, read-out: percentage inhibition
TGFBR1 = TGFBR1 (Homo sapiens (Human), UniProt P36897); conditions: 1 micromolar inhibitor concentration, read-out: percentage inhibition
MAP4K5 = MAP4K5 (Homo sapiens (Human), UniProt Q9Y4K4); conditions: 1 micromolar inhibitor concentration, read-out: percentage inhibition
OSR1 = OSR1 (Homo sapiens (Human), UniProt O95747); conditions: 1 micromolar inhibitor concentration, read-out: percentage inhibition
JAK2 = JAK2 (Homo sapiens (Human), UniProt O60674); conditions: 1 micromolar inhibitor concentration, read-out: percentage inhibition
PIM1 = PIM1 (Homo sapiens (Human), UniProt P11309); conditions: 1 micromolar inhibitor concentration, read-out: percentage inhibition
WNK1 = WNK1 (Homo sapiens (Human), UniProt Q9H4A3); conditions: 1 micromolar inhibitor concentration, read-out: percentage inhibition
JNK2 = JNK2 (Homo sapiens (Human), UniProt P45984); conditions: 1 micromolar inhibitor concentration, read-out: percentage inhibition
BRSK2 = BRSK2 (Homo sapiens (Human), UniProt Q8IWQ3); conditions: 1 micromolar inhibitor concentration, read-out: percentage inhibition
STK33 = STK33 (Homo sapiens (Human), UniProt Q9BYT3); conditions: 1 micromolar inhibitor concentration, read-out: percentage inhibition
PIM3 = PIM3 (Homo sapiens (Human), UniProt Q86V86); conditions: 1 micromolar inhibitor concentration, read-out: percentage inhibition
TrkA = TrkA (Homo sapiens (Human), UniProt P04629); conditions: 1 micromolar inhibitor concentration, read-out: percentage inhibition
Lck = Lck (Homo sapiens (Human), UniProt P06239); conditions: 1 micromolar inhibitor concentration, read-out: percentage inhibition
NUAK1 = NUAK1 (Homo sapiens (Human), UniProt O60285); conditions: 1 micromolar inhibitor concentration, read-out: percentage inhibition
DAPK1 = DAPK1 (Homo sapiens (Human), UniProt P53355); conditions: 1 micromolar inhibitor concentration, read-out: percentage inhibition
IRAK4 = IRAK4 (Homo sapiens (Human), UniProt Q9NWZ3); conditions: 1 micromolar inhibitor concentration, read-out: percentage inhibition
IR = IR (Homo sapiens (Human), UniProt P06213); conditions: 1 micromolar inhibitor concentration, read-out: percentage inhibition
MARK1 = MARK1 (Homo sapiens (Human), UniProt Q9P0L2); conditions: 1 micromolar inhibitor concentration, read-out: percentage inhibition
PAK5 = PAK5 (Homo sapiens (Human), UniProt Q9P286); conditions: 1 micromolar inhibitor concentration, read-out: percentage inhibition
LKB1 = LKB1 (Homo sapiens (Human), UniProt Q15831); conditions: 1 micromolar inhibitor concentration, read-out: percentage inhibition
p38b MAPK = p38b MAPK (Homo sapiens (Human), UniProt Q15759); conditions: 1 micromolar inhibitor concentration, read-out: percentage inhibition
CSK = CSK (Homo sapiens (Human), UniProt P41240); conditions: 1 micromolar inhibitor concentration, read-out: percentage inhibition
PKBb = PKBb (Homo sapiens (Human), UniProt P31751); conditions: 1 micromolar inhibitor concentration, read-out: percentage inhibition
CK2 = CK2 (Homo sapiens (Human), UniProt P68400); conditions: 1 micromolar inhibitor concentration, read-out: percentage inhibition
MARK4 = MARK4 (Homo sapiens (Human), UniProt Q96L34); conditions: 1 micromolar inhibitor concentration, read-out: percentage inhibition
CK1δ = CK1δ (Homo sapiens (Human), UniProt P48730); conditions: read-out: percentage inhibition
Description: The determination of protein kinase inhibition was performed at the International Centre for Kinase Profiling at the University of Dundee, UK. […] The ATP concentrations were at or below the calculated Km for ATP for each particular kinase.

SGK1 = SGK1 (Homo sapiens (Human), UniProt O00141); conditions: 1 micromolar inhibitor concentration, read-out: percentage inhibition
RSK1 = RSK1 (Homo sapiens (Human), UniProt Q15418); conditions: 1 micromolar inhibitor concentration, read-out: percentage inhibition
EF2K = EF2K (Homo sapiens (Human), UniProt O00418); conditions: 1 micromolar inhibitor concentration, read-out: percentage inhibition
GCK = GCK (Homo sapiens (Human), UniProt Q12851); conditions: 1 micromolar inhibitor concentration, read-out: percentage inhibition
PKCz = PKCz (Homo sapiens (Human), UniProt Q05513); conditions: 1 micromolar inhibitor concentration, read-out: percentage inhibition
PRAK = PRAK (Homo sapiens (Human), UniProt Q8IW41); conditions: 1 micromolar inhibitor concentration, read-out: percentage inhibition
MAPKAP-K2 = MAPKAP-K2 (Homo sapiens (Human), UniProt P49137); conditions: 1 micromolar inhibitor concentration, read-out: percentage inhibition
MARK3 = MARK3 (Homo sapiens (Human), UniProt P27448); conditions: 1 micromolar inhibitor concentration, read-out: percentage inhibition
TTBK1 = TTBK1 (Homo sapiens (Human), UniProt Q5TCY1); conditions: 1 micromolar inhibitor concentration, read-out: percentage inhibition
p38a MAPK = p38a MAPK (Homo sapiens (Human), UniProt Q16539); conditions: 1 micromolar inhibitor concentration, read-out: percentage inhibition
SIK2 = SIK2 (Homo sapiens (Human), UniProt Q9H0K1); conditions: 1 micromolar inhibitor concentration, read-out: percentage inhibition
BRK = BRK (Homo sapiens (Human), UniProt Q13882); conditions: 1 micromolar inhibitor concentration, read-out: percentage inhibition
TAK1 = TAK1 (Homo sapiens (Human), UniProt O43318); conditions: 1 micromolar inhibitor concentration, read-out: percentage inhibition
MAP4K3 = MAP4K3 (Homo sapiens (Human), UniProt Q8IVH8); conditions: 1 micromolar inhibitor concentration, read-out: percentage inhibition
HIPK1 = HIPK1 (Homo sapiens (Human), UniProt Q86Z02); conditions: 1 micromolar inhibitor concentration, read-out: percentage inhibition

Sequence of IRAK4 (Q9NWZ3 whole entry, species assumed): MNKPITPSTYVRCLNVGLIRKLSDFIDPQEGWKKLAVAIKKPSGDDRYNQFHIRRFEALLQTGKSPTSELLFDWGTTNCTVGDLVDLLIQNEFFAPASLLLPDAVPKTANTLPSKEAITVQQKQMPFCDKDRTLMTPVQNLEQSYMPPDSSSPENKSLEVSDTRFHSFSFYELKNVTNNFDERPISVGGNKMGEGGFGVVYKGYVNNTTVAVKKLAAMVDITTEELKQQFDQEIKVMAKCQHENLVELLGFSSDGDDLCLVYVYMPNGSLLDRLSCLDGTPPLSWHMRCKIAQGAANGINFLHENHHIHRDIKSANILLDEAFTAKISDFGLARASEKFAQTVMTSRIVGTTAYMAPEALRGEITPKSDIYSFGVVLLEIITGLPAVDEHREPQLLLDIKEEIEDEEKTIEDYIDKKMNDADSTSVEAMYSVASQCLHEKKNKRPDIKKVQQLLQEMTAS
Sequence of BRSK2 (Q8IWQ3 whole entry, species assumed): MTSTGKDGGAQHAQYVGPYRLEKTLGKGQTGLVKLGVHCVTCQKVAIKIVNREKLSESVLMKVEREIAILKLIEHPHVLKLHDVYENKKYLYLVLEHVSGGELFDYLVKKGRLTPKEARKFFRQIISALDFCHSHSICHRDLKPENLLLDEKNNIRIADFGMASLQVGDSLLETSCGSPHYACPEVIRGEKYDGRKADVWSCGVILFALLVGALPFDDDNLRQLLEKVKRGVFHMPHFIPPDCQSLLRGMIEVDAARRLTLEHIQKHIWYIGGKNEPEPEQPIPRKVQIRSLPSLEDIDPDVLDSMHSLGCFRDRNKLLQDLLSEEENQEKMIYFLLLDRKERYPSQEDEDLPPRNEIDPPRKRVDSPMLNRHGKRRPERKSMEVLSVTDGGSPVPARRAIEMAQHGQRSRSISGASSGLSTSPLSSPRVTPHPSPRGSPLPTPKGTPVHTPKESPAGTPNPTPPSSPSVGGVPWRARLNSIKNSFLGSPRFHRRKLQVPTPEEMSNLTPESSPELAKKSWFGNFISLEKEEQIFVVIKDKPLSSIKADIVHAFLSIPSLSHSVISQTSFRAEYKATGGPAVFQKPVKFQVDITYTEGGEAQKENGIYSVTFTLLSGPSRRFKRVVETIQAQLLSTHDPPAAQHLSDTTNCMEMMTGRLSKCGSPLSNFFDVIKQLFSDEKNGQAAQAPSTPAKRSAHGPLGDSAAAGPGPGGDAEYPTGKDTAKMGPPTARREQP
Sequence of MARK3 (P27448 whole entry, species assumed): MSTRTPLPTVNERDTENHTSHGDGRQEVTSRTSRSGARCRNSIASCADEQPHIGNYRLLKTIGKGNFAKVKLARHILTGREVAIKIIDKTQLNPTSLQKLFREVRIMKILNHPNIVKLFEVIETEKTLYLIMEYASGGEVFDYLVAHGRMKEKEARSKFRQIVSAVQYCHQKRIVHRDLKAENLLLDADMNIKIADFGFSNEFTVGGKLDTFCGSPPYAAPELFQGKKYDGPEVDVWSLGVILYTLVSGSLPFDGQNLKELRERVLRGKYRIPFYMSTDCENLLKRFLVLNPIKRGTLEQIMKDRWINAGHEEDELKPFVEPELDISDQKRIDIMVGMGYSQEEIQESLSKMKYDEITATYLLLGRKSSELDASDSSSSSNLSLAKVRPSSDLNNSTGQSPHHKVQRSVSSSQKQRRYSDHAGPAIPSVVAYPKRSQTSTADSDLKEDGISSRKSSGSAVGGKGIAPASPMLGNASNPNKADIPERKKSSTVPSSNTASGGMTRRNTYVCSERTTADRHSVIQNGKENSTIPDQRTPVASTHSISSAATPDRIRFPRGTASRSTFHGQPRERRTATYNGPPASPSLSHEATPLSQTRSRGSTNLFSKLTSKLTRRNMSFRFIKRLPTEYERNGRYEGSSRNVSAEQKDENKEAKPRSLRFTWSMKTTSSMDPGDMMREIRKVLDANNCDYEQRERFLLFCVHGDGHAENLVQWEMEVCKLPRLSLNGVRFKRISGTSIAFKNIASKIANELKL
Sequence of LKB1 (Q15831 whole entry, species assumed): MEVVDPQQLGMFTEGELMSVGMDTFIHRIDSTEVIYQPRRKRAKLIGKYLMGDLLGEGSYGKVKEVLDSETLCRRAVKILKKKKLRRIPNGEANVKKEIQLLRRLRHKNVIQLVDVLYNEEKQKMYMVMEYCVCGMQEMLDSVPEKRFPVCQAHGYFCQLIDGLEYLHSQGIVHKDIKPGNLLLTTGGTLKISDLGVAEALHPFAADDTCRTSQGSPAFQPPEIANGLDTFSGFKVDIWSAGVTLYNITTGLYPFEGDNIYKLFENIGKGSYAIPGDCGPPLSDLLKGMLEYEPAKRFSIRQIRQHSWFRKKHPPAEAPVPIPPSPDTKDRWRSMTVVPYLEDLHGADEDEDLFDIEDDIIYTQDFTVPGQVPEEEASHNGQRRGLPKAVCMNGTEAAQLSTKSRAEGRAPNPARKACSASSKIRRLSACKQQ
Sequence of LKB1 (Q7RTN6 whole entry partner, species assumed): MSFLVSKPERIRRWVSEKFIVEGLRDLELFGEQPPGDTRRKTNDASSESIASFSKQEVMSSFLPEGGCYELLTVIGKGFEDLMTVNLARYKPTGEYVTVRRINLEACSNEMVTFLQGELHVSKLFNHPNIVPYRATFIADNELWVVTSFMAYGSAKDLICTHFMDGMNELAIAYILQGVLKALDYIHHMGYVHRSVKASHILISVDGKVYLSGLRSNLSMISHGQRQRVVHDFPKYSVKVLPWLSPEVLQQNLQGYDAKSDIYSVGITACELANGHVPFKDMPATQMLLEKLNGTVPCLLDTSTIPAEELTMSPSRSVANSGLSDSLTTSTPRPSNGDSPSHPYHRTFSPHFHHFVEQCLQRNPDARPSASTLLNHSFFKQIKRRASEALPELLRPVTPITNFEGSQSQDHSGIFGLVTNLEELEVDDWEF
Sequence of LKB1 (Q9Y376 whole entry partner, species assumed): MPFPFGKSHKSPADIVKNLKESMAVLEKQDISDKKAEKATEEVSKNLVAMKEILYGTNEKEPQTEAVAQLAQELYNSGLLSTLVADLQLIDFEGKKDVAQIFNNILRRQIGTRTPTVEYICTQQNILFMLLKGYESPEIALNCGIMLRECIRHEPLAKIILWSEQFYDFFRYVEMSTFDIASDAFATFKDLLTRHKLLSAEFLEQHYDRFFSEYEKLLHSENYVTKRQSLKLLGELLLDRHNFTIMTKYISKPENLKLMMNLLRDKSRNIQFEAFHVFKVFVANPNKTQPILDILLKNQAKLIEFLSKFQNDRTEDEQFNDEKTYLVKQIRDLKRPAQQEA
Sequence of MNK2 (Q9HBH9 whole entry, species assumed): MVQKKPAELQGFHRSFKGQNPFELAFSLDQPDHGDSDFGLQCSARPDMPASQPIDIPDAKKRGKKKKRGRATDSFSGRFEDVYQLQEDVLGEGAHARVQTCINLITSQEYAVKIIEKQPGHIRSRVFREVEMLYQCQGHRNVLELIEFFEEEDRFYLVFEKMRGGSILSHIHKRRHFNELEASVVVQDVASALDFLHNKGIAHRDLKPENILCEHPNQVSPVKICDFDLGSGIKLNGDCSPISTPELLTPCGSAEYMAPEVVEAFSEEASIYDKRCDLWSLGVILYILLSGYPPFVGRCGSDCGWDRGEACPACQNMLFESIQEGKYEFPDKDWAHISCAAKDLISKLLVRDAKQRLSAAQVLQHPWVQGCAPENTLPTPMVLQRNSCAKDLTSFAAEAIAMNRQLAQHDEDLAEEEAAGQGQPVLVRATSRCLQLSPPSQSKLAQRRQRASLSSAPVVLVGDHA
Sequence of PRAK (Q8IW41 whole entry, species assumed): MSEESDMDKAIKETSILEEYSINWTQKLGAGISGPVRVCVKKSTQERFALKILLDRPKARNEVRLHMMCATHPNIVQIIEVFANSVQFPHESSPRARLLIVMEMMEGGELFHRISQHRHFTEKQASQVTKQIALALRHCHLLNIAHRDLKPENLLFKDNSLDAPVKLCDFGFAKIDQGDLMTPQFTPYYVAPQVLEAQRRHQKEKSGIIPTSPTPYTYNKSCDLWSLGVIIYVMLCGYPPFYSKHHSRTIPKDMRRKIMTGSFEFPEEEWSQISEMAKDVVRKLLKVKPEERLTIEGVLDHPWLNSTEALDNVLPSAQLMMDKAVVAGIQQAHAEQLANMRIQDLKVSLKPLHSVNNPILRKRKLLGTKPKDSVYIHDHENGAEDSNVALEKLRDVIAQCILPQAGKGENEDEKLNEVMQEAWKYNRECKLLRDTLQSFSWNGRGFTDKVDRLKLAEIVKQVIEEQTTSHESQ
Sequence of SGK1 (O00141 whole entry, species assumed): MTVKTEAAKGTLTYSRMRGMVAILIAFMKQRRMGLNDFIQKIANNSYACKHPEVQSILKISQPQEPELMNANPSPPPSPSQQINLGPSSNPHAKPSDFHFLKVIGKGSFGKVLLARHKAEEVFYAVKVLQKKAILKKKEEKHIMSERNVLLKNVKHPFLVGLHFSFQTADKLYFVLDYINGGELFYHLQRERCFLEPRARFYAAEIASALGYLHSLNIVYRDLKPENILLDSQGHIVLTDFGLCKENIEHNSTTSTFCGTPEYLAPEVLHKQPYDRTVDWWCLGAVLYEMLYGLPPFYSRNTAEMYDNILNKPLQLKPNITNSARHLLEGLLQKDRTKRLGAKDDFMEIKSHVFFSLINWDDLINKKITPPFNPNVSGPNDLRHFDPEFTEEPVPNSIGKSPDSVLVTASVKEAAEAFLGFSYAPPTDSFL
Sequence of MAPKAP-K2 (P49137 whole entry, species assumed): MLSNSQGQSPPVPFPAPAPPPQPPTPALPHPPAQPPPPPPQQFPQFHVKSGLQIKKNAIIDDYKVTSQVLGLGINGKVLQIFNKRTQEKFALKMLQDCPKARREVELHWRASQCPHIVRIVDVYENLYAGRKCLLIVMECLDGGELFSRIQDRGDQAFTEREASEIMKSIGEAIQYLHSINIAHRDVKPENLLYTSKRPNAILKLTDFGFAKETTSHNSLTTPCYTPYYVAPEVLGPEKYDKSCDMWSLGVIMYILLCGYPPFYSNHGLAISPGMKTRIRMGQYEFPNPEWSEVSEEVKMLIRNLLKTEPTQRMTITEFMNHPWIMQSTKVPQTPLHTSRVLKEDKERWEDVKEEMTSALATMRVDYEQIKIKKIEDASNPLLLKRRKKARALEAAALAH

What does the source list for `COc1ccc2sc(-c3cncc(NC(C)=O)c3)nc2c1` [4-93, N-(5-(5-Methoxybenzo[d]thiazol-2-yl)pyridin-3-yl)acetamide]?
inhibition at 1 µM (MNK2): 0%; inhibition at 1 µM (PKCa): 0%; inhibition at 1 µM (TGFBR1): 0%; inhibition at 1 µM (MAP4K5): 18%; inhibition at 1 µM (OSR1): 0%; inhibition at 1 µM (JAK2): 0%; inhibition at 1 µM (PIM1): 2%; inhibition at 1 µM (WNK1): 0%; inhibition at 1 µM (JNK2): 0%; inhibition at 1 µM (BRSK2): 0%; inhibition at 1 µM (STK33): 0%; inhibition at 1 µM (PIM3): 7%; inhibition at 1 µM (TrkA): 0%; inhibition at 1 µM (Lck): 7%; inhibition at 1 µM (NUAK1): 0%; inhibition at 1 µM (DAPK1): 0%; inhibition at 1 µM (IRAK4): 12%; inhibition at 1 µM (IR): 0%; inhibition at 1 µM (MARK1): 0%; inhibition at 1 µM (PAK5): 0%; inhibition at 1 µM (LKB1): 0%; inhibition at 1 µM (p38b MAPK): 0%; inhibition at 1 µM (CSK): 0%; inhibition at 1 µM (PKBb): 0%; inhibition at 1 µM (CK2): 0%; inhibition at 1 µM (MARK4): 0%; inhibition at 1 µM (CK1δ): 1%; inhibition at 1 µM (SGK1): 0%; inhibition at 1 µM (RSK1): 1%; inhibition at 1 µM (EF2K): 0%; inhibition at 1 µM (GCK): 0%; inhibition at 1 µM (PKCz): 0%; inhibition at 1 µM (PRAK): 0%; inhibition at 1 µM (MAPKAP-K2): 0%; inhibition at 1 µM (MARK3): 1%; inhibition at 1 µM (TTBK1): 0%; inhibition at 1 µM (p38a MAPK): 0%; inhibition at 1 µM (SIK2): 0%; inhibition at 1 µM (BRK): 0%; inhibition at 1 µM (TAK1): 52%; inhibition at 1 µM (MAP4K3): 0%; inhibition at 1 µM (HIPK1): 0%

Which results are given for `CS(=O)(=O)Nc1cncc(-c2nc3cc(O)ccc3s2)c1` [4-99, N-(5-(5-Hydroxybenzo[d]thiazol-2-yl)pyridin-3-yl)methanesulfonamide]?
inhibition at 1 µM (MNK2): 0%; inhibition at 1 µM (PKCa): 0%; inhibition at 1 µM (TGFBR1): 0%; inhibition at 1 µM (MAP4K5): 0%; inhibition at 1 µM (OSR1): 0%; inhibition at 1 µM (JAK2): 0%; inhibition at 1 µM (PIM1): 0%; inhibition at 1 µM (WNK1): 0%; inhibition at 1 µM (JNK2): 0%; inhibition at 1 µM (BRSK2): 0%; inhibition at 1 µM (STK33): 0%; inhibition at 1 µM (PIM3): 0%; inhibition at 1 µM (TrkA): 0%; inhibition at 1 µM (Lck): 0%; inhibition at 1 µM (NUAK1): 0%; inhibition at 1 µM (DAPK1): 0%; inhibition at 1 µM (IRAK4): 8%; inhibition at 1 µM (IR): 0%; inhibition at 1 µM (MARK1): 0%; inhibition at 1 µM (PAK5): 0%; inhibition at 1 µM (LKB1): 0%; inhibition at 1 µM (p38b MAPK): 0%; inhibition at 1 µM (CSK): 0%; inhibition at 1 µM (PKBb): 0%; inhibition at 1 µM (CK2): 6%; inhibition at 1 µM (MARK4): 0%; inhibition at 1 µM (CK1δ; CK1δ, 1 micromolar inhibitor concentration): 8%; inhibition at 1 µM (SGK1): 7%; inhibition at 1 µM (RSK1): 0%; inhibition at 1 µM (EF2K): 0%; inhibition at 1 µM (GCK): 0%; inhibition at 1 µM (PKCz): 0%; inhibition at 1 µM (PRAK): 0%; inhibition at 1 µM (MAPKAP-K2): 0%; inhibition at 1 µM (MARK3): 0%; inhibition at 1 µM (TTBK1): 0%; inhibition at 1 µM (p38a MAPK): 0%; inhibition at 1 µM (SIK2): 0%; inhibition at 1 µM (BRK): 0%; inhibition at 1 µM (TAK1): 8%; inhibition at 1 µM (MAP4K3): 0%; inhibition at 1 µM (HIPK1): 0%
